# Assay results published in US12384754B2, “Cocrystals of (1R,3S)-3-(5-cyano-4-phenyl-1,3-thiazol-2-ylcarbamoyl)cyclopentane carboxylic acid” (PALOBIOFARMA, S.L., priority 2020, dated 2025).
# Where two headings read alike, the source gives them in different places.
# Key:
# [1] = pKa / ΔpKa of free acid and cocrystal forming compounds; type: physicochemical; settings: free acid; read-out: pKa
# Excerpt: Cocrystals are distinguished from salts because unlike salts, the components that co-exist in the cocrystal lattice with a defined stoichiometry interact nonionically. […] If this criterion is met, the API-coformer entity should be classified as a cocrystal. (Regulatory Classification of Pharmaceutical Co-Crystals Guidance for Industry, February 2018, http://www.fda.gov/Drugs/GuidanceComplianceRegulatotyInformation/Guidances/default.htm).
# [2] = Hygroscopicity study by DVS (Dynamic Vapour Sorption); type: physicochemical
# Procedure: Hygroscopicity study. The hygroscopicity of cocrystals was determined by DVS (Dynamic Vapour Sorption) with a Q5000 TA instrument. This is a gravimetric technique that measures the amount of water absorbed or desorbed by a sample at different relative humidities (RH). At each RH level, the sample mass must be allowed to reach gravimetric equilibrium (or surpass the time limit) before progressing to the next humidity level. Sorption and desorption isotherms were performed at 25° C. over a range of 0-95% RH. The sample was not previously dried, but it was exposed to 0% RH until reaching a stable weight before starting the DVS cycle. This equilibration step allows the elimination of the possible adsorbed humidity from the atmosphere. The relative humidity (RH) was controlled by a mixture of wet and dry nitrogen stream. The RH was held constant until the equilibrium had been obtained (constant weight) or until the maximum time has been reached, before changing the RH to the next level.
# [3] = Plasma pharmacokinetics / oral bioavailability after single IV and PO administration; type: in vivo; settings: male SD rats
# Procedure: The objective of this study was to investigate the plasma pharmacokinetics of differentes cocrystals obtained from (1R,3S)-3-(5-cyano-4-phenyl-1, 3-thiazol ylcarbamoyl) cyclopentane carboxylic acid, following a single intravenous (IV) and oral (PO) administration in male SD rats.
# Animals were divided into two groups: Group 1 (IV: 1 mg/kg) and Group 2 (PO: 5 mg/kg). Animals in Group 1 and 2 were administered a solution of the different cocrystals of (1R,3S)-3-(5-cyano-4-phenyl-1,3-thiazol-2-ylcarbamoyl) cyclopentane carboxylic acid in normal saline. The blood samples were collected from set of three rats at each time point in labeled micro centrifuge tube containing K2EDTA solution as anticoagulant at Pre-dose, 0.083, 0.25, 0.5, 1, 2, 4, 8 and 24 hr (IV) and Pre-dose, 0.25, 0.5, 1, 2, 4, 6, 8 and 24 hr (PO). Plasma samples were separated by centrifugation of whole blood and stored below −70±10° C. until bioanalysis. All samples were processed for analysis by protein precipitation using acetonitrile and analyzed with fit-for-purpose LC-MS/MS method (LLOQ=1.00 ng/ml). Pharmacokinetic parameters were calculated using the non-compartmental analysis tool of Phoenix WinNonlin® (Version 6.3).
# [4] = Comparative bioavailability assay in healthy volunteers; type: in vivo; settings: single oral dose, Example 1 5 mg, Example 2 7.3 mg; for Cmax / Tmax: male, human, plasma, po, 5 mg; for Tmax: read-out: tmax, median and range
# Procedure: Healthy volunteers in this study will be males 18 years of age or older in order to assess the comparative bioavailability of compound of Example 2 versus compound of Example 1, under fasting conditions and to investigate the effect of a high fat, high calorie meal. Compounds will be administered orally in single dose of Example 1 (5 mg) and Example 2 (7.3 mg). The study will have a randomized, open-label, four-fold crossover design.
# In order to determine comparative bioavailability AUC0-t (AUC0-t: Area under the plasma concentration-time curve from time 0 h to the last measurable concentration) and Cmax (Cmax: Observed maximum plasma concentration (peak exposure)) will be determined after each administration.
# 16 volunteers were included in the study. […] Therefore, all the data were included in all pharmacokinetic measurements and calculations, without any adjustment.
# [5] = Fed (high fat, high calorie meal)
smiles,measurement,setting,value
"N#Cc1sc(NC(=O)[C@H]2CC[C@@H](C(=O)O)C2)nc1-c1ccccc1 [Example 1, (1R,3S)-3-(5-cyano-4-phenyl-1,3-thiazol-2-ylcarbamoyl) cyclopentane carboxylic acid]",pKa,[1],4.3
same,"moisture content, 15% RH","[2]; DVS, 25° C., 15% RH",0.0168
same,"moisture content, 35% RH","[2]; DVS, 25° C., 35% RH",0.1842
same,"moisture content, 55% RH","[2]; DVS, 25° C., 55% RH",0.3008
same,"moisture content, 75% RH","[2]; DVS, 25° C., 75% RH",0.4369
same,variation in the moisture content,[2]; at 75% RH,0.43%
same,F % (bioavailability),[3]; po 5 mg/Kg vs iv 1 mg/Kg,47%
same,AUClast,"[3]; po, 5 mg/Kg",5200.71 ng·h/mL
same,Cmax,"[3]; po, 5 mg/Kg",2012 ng/mL
same,"AUC0-t, MEAN ± SD",[4]; Fasting,1155.0 ± 567.8 ng/mLxh
same,"AUC0-t, geometric mean",[4]; Fasting,(1052.8) ng/mLxh
same,"AUC0-∞, MEAN ± SD",[4]; Fasting,1257.2 ± 661.9 ng/mLxh
same,"AUC0-∞, geometric mean",[4]; Fasting,(1132.2) ng/mLxh
same,"AUC0-t, MEAN ± SD",[4]; [5],588.1 ± 160.9 ng/mLxh
same,"AUC0-t, geometric mean",[4]; [5],(567.9) ng/mLxh
same,"AUC0-∞, MEAN ± SD",[4]; [5],657.9 ± 191.4 ng/mLxh
same,"AUC0-∞, geometric mean",[4]; [5],(632.7) ng/mLxh
same,Cmax,"[4]; Fasting, read-out: Cmax, MEAN ± SD",187 ± 71.6 ng/mL
same,Cmax,"[4]; Fasting, read-out: Cmax, geometric mean",176 ng/mL
same,Tmax,[4]; Fasting,2.5 h
same,Cmax,"[4]; Fed (high fat, high calorie meal), read-out: Cmax, MEAN ± SD",68 ng/mL
same,Cmax,"[4]; Fed (high fat, high calorie meal), read-out: Cmax, geometric mean",65.6 ng/mL
same,Tmax,[4]; [5],7 h
